# Results as given in US20250230171A1 (MOMA Therapeutics, Inc., priority 2023, published 2025).
# How the values were obtained:
# DLD1 BRCA2 (−/−) cells = assay: 7-day cell viability assay (CellTiter-Glo), DLD1 BRCA2 (−/−); format: cell-based, human; details: Homo sapiens, DLD-1, 168 h, 7-day CellTiter-Glo, n=2, read-out: Viability IC50 (uM) DLD1 BRCA2 null
# Summary of the method: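 7-day growth assay in DLD1 cells with or without BRCA2; seeding densities chosen to keep log-linear growth. Compound: 10 uM top, 3-fold, 9 points. Endpoint: CTG ATP luminescence at RT.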
# DLD1 WT cells = assay: 7-day cell viability assay (CellTiter-Glo), DLD1 parental (WT); format: cell-based, human; details: Homo sapiens, DLD-1, 168 h, 7-day CellTiter-Glo, n=2
Compound,IC50 (DLD1 BRCA2 (−/−) cells),IC50 (DLD1 WT cells)
"COc1nnc(C(F)F)cc1-c1cc(C)ncc1C(=O)Nc1nc2c(s1)CN(C(=O)c1nccc(C(F)(F)F)c1C)C2 [Example 1024, 4-(6-(difluoromethyl)-3-methoxypyridazin-4-yl)-6-methyl-N-(5-(3-methyl-4-(trifluoromethyl)picolinoyl)-5,6-dihydro-4H-pyrrolo[3,4-d]thiazol-2-yl)nicotinamide]",0.001 to 0.1 µM,≥ 10 µM
"COc1cnc(Cl)cc1-c1cc(C)ncc1C(=O)Nc1nc2c(s1)CN(C(=O)c1nc(C)c(C(F)F)c(C)c1Cl)C2 [Example 1020, 2′-chloro-N-(5-(3-chloro-5-(difluoromethyl)-4,6-dimethylpicolinoyl)-5,6-dihydro-4H-pyrrolo[3,4-d]thiazol-2-yl)-5′-methoxy-6-methyl-[4,4′-bipyridine]-3-carboxamide]",0.001 to 0.1 µM,≥ 10 µM
COc1cnc(Cl)cc1-c1cc(C)ncc1C(=O)Nc1nc2c(s1)CN(C(=O)c1ccc(C(F)F)c(Cl)n1)C2,0.001 to 0.1 µM,≥ 10 µM
"COc1ncc(Cl)cc1-c1cc(C)ncc1C(=O)Nc1nc2c(s1)CN(C(=O)c1ccc(C(F)F)cn1)C2 [Example 446, 5-Chloro-N-(5-(5-(difluoromethyl)picolinoyl)-5,6-dihydro-4H-pyrrolo[3,4-d]thiazol-2-yl)-2-methoxy-6′-methyl-[3,4′-bipyridine]-3′-carboxamide]",0.001 to 0.1 µM,2 to 5 µM
"COc1cnc(Cl)cc1-c1cc(C)ncc1C(=O)Nc1nc2c(s1)CN(C(=O)c1cnc(OC(F)(F)F)cc1C)C2 [Example 1009, 2′-chloro-5′-methoxy-6-methyl-N-(5-(4-methyl-6-(trifluoromethoxy)nicotinoyl)-5,6-dihydro-4H-pyrrolo[3,4-d]thiazol-2-yl)-[4,4′-bipyridine]-3-carboxamide]",0.001 to 0.1 µM,≥ 10 µM
"COc1cnc(Cl)cc1-c1cc(C)ncc1C(=O)Nc1nc2c(s1)CN(C(=O)c1ccc(OC(F)(F)F)nc1C)C2 [Example 1018, 2′-chloro-5′-methoxy-6-methyl-N-(5-(2-methyl-6-(trifluoromethoxy)nicotinoyl)-5,6-dihydro-4H-pyrrolo[3,4-d]thiazol-2-yl)-[4,4′-bipyridine]-3-carboxamide]",0.001 to 0.1 µM,≥ 10 µM
"COc1cnc(Cl)cc1-c1cc(C)ncc1C(=O)Nc1nc2c(s1)CN(C(=O)c1ncc(C(F)F)c(OC)n1)C2 [Example 907, 2′-chloro-N-(5-(5-(difluoromethyl)-4-methoxypyrimidine-2-carbonyl)-5,6-dihydro-4H-pyrrolo[3,4-d]thiazol-2-yl)-5′-methoxy-6-methyl-[4,4′-bipyridine]-3-carboxamide]",0.001 to 0.1 µM,≥ 10 µM
COc1cnc(Cl)cc1-c1cc(C)ncc1C(=O)Nc1nc2c(s1)CN(Cc1cccc(C(F)F)n1)C2,0.001 to 0.1 µM,≥ 10 µM
"COc1nc(C(F)(F)F)ccc1C(=O)N1Cc2nc(NC(=O)c3cnc(C)cc3-c3cc(C#N)cnc3OC)sc2C1 [Example 1048, 5-cyano-2-methoxy-N-(5-(2-methoxy-6-(trifluoromethyl)nicotinoyl)-5,6-dihydro-4H-pyrrolo[3,4-d]thiazol-2-yl)-6′-methyl-[3,4′-bipyridine]-3′-carboxamide]",0.001 to 0.1 µM,≥ 10 µM
COc1cnc(Cl)cc1-c1cc(C)ncc1C(=O)Nc1nc2c(s1)CN(C(=O)c1ccc(C)c(Cl)n1)C2,0.001 to 0.1 µM,≥ 10 µM
COc1cnc(Cl)cc1-c1cc(C)ncc1C(=O)Nc1nc2c(s1)CN(C(=O)c1ccc(C(F)F)c(OC)n1)C2,0.001 to 0.1 µM,5 to 10 µM
COc1cnc(Cl)cc1-c1cc(C)ncc1C(=O)Nc1nc2c(s1)CN(C(=O)c1ncc(Cl)c(C(F)F)n1)C2 (racemic),0.25 to 0.5 µM,≥ 10 µM
COc1cnc(Cl)cc1-c1cc(C)ncc1C(=O)Nc1nc2c(s1)CN(C(=O)[C@H]1CC[C@@H](OC(F)(F)F)CC1)C2 [Example 925],0.001 to 0.1 µM,5 to 10 µM
"COc1cnc(Cl)cc1-c1cc(C)ncc1C(=O)Nc1nc2c(s1)CN(C(=O)c1ncc(C(F)F)nc1OC)C2 [Example 972, 2′-chloro-N-(5-(5-(difluoromethyl)-3-methoxypyrazine-2-carbonyl)-5,6-dihydro-4H-pyrrolo[3,4-d]thiazol-2-yl)-5′-methoxy-6-methyl-[4,4′-bipyridine]-3-carboxamide]",0.001 to 0.1 µM,≥ 10 µM
COc1cnc(Cl)cc1-c1cc(C)ncc1C(=O)Nc1nc2c(s1)CN(C(=O)c1ccc(C(F)(F)F)c(C)n1)C2,0.001 to 0.1 µM,≥ 10 µM

# Further lines, with some results ahead:
IC50 (DLD1 BRCA2 (−/−) cells),Compound,IC50 (DLD1 WT cells)
0.001 to 0.1 µM,"COc1cnc(Cl)cc1-c1cc(C)ncc1C(=O)Nc1nc2c(s1)CN(C(=O)C1CCN(CC(F)(F)F)CC1)C2 [Example 959, 2′-chloro-5′-methoxy-6-methyl-N-(5-(1-(2,2,2-trifluoroethyl)piperidine-4-carbonyl)-5,6-dihydro-4H-pyrrolo[3,4-d]thiazol-2-yl)-[4,4′-bipyridine]-3-carboxamide]",≥ 10 µM
0.001 to 0.1 µM,"COc1nc(C(F)(F)F)ccc1C(=O)N1Cc2nc(NC(=O)c3cnc(C)cc3-c3cc(Cl)nnc3OC)sc2C1 [Example 996, 4-(6-chloro-3-methoxypyridazin-4-yl)-N-(5-(2-methoxy-6-(trifluoromethyl)nicotinoyl)-5,6-dihydro-4H-pyrrolo[3,4-d]thiazol-2-yl)-6-methylnicotinamide]",≥ 10 µM
0.001 to 0.1 µM,"COc1cnc(Cl)cc1-c1cc(C)ncc1C(=O)Nc1nc2c(s1)CN(C(=O)c1nc(Cl)c(C(F)F)cc1F)C2 [Example 927, 2′-chloro-N-(5-(6-chloro-5-(difluoromethyl)-3-fluoropicolinoyl)-5,6-dihydro-4H-pyrrolo[3,4-d]thiazol-2-yl)-5′-methoxy-6-methyl-[4,4′-bipyridine]-3-carboxamide]",≥ 10 µM
0.001 to 0.1 µM,"COc1cnc(Cl)cc1-c1cc(C)ncc1C(=O)Nc1nc2c(s1)CN(Cc1ccc(C(F)F)cc1F)C2 [Example 964, 2′-chloro-N-(5-(4-(difluoromethyl)-2-fluorobenzyl)-5,6-dihydro-4H-pyrrolo[3,4-d]thiazol-2-yl)-5′-methoxy-6-methyl-[4,4′-bipyridine]-3-carboxamide]",≥ 10 µM
0.001 to 0.1 µM,"COc1cnc(Cl)cc1-c1cc(C)ncc1C(=O)Nc1nc2c(s1)CN(C(=O)c1ccc(C(F)(F)F)nc1OC)C2C (centres unmarked) [Example 1033, 2′-chloro-5′-methoxy-N-(5-(2-methoxy-6-(trifluoromethyl)nicotinoyl)-4-methyl-5,6-dihydro-4H-pyrrolo[3,4-d]thiazol-2-yl)-6-methyl-[4,4′-bipyridine]-3-carboxamide]",≥ 10 µM
0.001 to 0.1 µM,COc1cnc(Cl)cc1-c1cc(C)ncc1C(=O)Nc1nc2c(s1)CN(C(=O)c1nc(OC)c(C(F)F)cc1C)C2,≥ 10 µM
0.001 to 0.1 µM,"COc1cnc(Cl)cc1-c1cc(C)ncc1C(=O)Nc1nc2c(s1)CN(C(=O)c1cnc(C(F)(F)F)cc1Cl)C2 [Example 973, 2′-chloro-N-(5-(4-chloro-6-(trifluoromethyl)nicotinoyl)-5,6-dihydro-4H-pyrrolo[3,4-d]thiazol-2-yl)-5′-methoxy-6-methyl-[4,4′-bipyridine]-3-carboxamide]",≥ 10 µM
